Measured values: US9119853B2, “Sanglifehrin based compounds” (priority 2010, dated 2015)
Converted amounts (≈) assume the structure as drawn. Like-named read-outs stand apart in the source and are kept apart here.

Columns and labels:
[1] = Anti-metabolic effect (MTS) in the replicon cell line; details: human
Solubility in PBS pH 7.4 = details: for solubility compared to sanglifehrin A (5) and cyclosporine A (1) (in words): PBS pH 7.4; for solubility at 4 h: PBS, pH 7.4, aqueous buffer, kinetic from dmso stock
[2] = test system: HCV genotype 1b I389luc-ubi-neo/NS3-3'/5.1 replicon in Huh5.2 cells; assay: microbe, parasite or virus in culture; assay type: cell-based, Hepatitis C Virus
[3] = pH 7.4
[4] = test system: HIV (pNL4.3-GFP / pNL4.3-BaL-GFP) in CD4+ HeLa cells; assay: microbe, parasite or virus in culture; assay type: cell-based; details: for EC50: Human immunodeficiency virus 1, BAL, HeLa, 48 h, read-out: HeLa cells EC50; for potency at inhibiting HIV infection compared to cyclosporine A, 1 (in words): four cell types
[5] = target: T1, GST-CypD / Con1 NS5A-His complex (Homo sapiens, UniProt P30405); assay: biochemical
T1 sequence (P30405 30-207, one chain of several): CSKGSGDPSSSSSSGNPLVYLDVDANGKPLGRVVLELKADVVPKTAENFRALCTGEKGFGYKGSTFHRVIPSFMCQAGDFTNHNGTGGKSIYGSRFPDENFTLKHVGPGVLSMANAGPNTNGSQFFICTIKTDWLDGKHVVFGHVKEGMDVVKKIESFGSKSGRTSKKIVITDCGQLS

[6] = test system: HIV (pNL4.3-GFP / pNL4.3-BaL-GFP) in CD4+ T-lymphocytes; assay: microbe, parasite or virus in culture; assay type: cell-based; details: Human immunodeficiency virus 1, BAL, T-lymphocyte, 48 h, read-out: CD4+ T-lymphocytes EC50
[7] = test system: peripheral blood mononuclear cells (PBMC); assay: Mixed lymphocyte reaction (MLR) for immunosuppressant activity; assay type: cell-based, human; details: for IC50: Homo sapiens, PBMC, read-out: Human MLR IC50; for immunosuppressive activity (in words): MLR
[8] = test system: HIV (pNL4.3-GFP / pNL4.3-BaL-GFP) in macrophages; assay: microbe, parasite or virus in culture; assay type: cell-based; details: Human immunodeficiency virus 1, BAL, Macrophage, 48 h, read-out: Macrophages EC50
[9] = test system: HBV in HepG2 2.2.15 cells; assay: HBV antiviral assay (HBV DNA by qPCR); assay type: cell-based, Hepatitis B Virus; details: Hepatitis B virus, HepG2 2.2.15, […], read-out: HBV EC50
[10] = Cell viability (dye uptake) in the HBV assay; assay type: cell-based; details: human, HepG2 2.2.15 cells; read-out: TC50
Method: Antiviral efficacy against HBV may be tested as follows: HepG2 2.2.15 cells are plated in 96-well microtiter plates. After 16-24 hours the confluent monolayer of HepG2 2.2.15 cells is washed and the medium is replaced with complete medium containing various concentrations of a test compound in triplicate (eg six half-log concentrations). Three days later the culture medium is replaced with fresh medium containing the appropriately diluted test compounds. Six days following the initial administration of the test compound, the cell culture supernatant is collected, treated with pronase and then used in a real-time quantitative TaqMan qPCR assay. The PCR-amplified HBV DNA is detected in real-time by monitoring increases in fluorescence signals that result from the exonucleolytic degradation of a quenched fluorescent probe molecule that hybridizes to the amplified HBV DNA. For each PCR amplification, a standard curve is simultaneously generated using dilutions of purified HBV DNA. Antiviral activity is calculated from the reduction in HBV DNA levels (IC50). A dye uptake assay is then employed to measure cell viability, which is used to calculate toxicity (TC50). The therapeutic index (TI) is calculated as TC50/IC50.

[11] = target: T1, GST-CypD / Con1 NS5A-His complex; assay: ELISA analysis of Cyp-NS5A interaction (CypD-NS5A disruption)
[12] = test system: HIV (pNL4.3-GFP / pNL4.3-BaL-GFP) in Jurkat cells; assay: microbe, parasite or virus in culture; assay type: cell-based; details: Human immunodeficiency virus 1, BAL, 48 h, read-out: T cells EC50
physchem = details: pH 7.4, aqueous buffer, kinetic from dmso stock
Huh5.2 cells = assay: Anti-metabolic effect (MTS) in the replicon cell line; details: Huh5.2 cells, MTS, 72 hours
[13] = Hepatitis C virus, Huh-5-2, 72 h

Row | Structure (SMILES) | CC50 at 72 h [1] [nM] | solubility compared to sanglifehrin A (5) and cyclosporine A (1) (in words) (Solubility in PBS pH 7.4) | solubility at 4 h (Solubility in PBS pH 7.4) [µM] | Selectivity index (CC50/EC50) [2] | potency in the Huh5.2 replicon assay (in words) [2] | EC50 [2, 13] [nM] | EC90 [2, 13] [nM] | also measured
1 | C/C=C/C[C@H]1C(=O)N[C@@H](C(C)C)C(=O)N[C@@H](Cc2cccc(O)c2)C(=O)N2CCCC(N2)C(=O)O[C@H](/C(C)=C/C=C/C(=O)N(C)OC)C/C=C/C=C/[C@H](O)[C@H](C)[C@H]1O (some centres unmarked) [compound 28] | 17700 | increased solubility | 78 (≈ 63 µg/mL) | 28.2 | very potent | 628 | 4000 | –
2 | C=CCNC(=O)/C=C/C=C(\C)[C@@H]1C/C=C/C=C/[C@H](O)[C@H](C)[C@@H](O)[C@@H](CCC(C)=O)C(=O)N[C@@H](C(C)C)C(=O)N[C@@H](Cc2cccc(O)c2)C(=O)N2CCCC(N2)C(=O)O1 (some centres unmarked) [compound 25] | 48400 | increased solubility | – | – | – | 1600 | 8500 | Solubility [3]: 96 µM (≈ 78.7 µg/mL)
3 | CC(=O)CC[C@H]1C(=O)N[C@@H](C(C)C)C(=O)N[C@@H](Cc2cccc(O)c2)C(=O)N2CCCC(N2)C(=O)O[C@H](/C(C)=C/C=C/C(=O)NC2CCCCC2)C/C=C/C=C/[C@H](O)[C@H](C)[C@H]1O (some centres unmarked) [compound 51] | > 100000 | – | – | >298 | very potent | 336 | 4200 | –
4 | CC(=O)CC[C@H]1C(=O)N[C@@H](C(C)C)C(=O)N[C@@H](Cc2cccc(O)c2)C(=O)N2CCCC(N2)C(=O)O[C@H](/C(C)=C/C=C/C(=O)Nc2ccccn2)C/C=C/C=C/[C@H](O)[C@H](C)[C@H]1O (some centres unmarked) [compound 48] | 39700 | – | – | – | very potent | 167 | 737 | EC50 [4]: 250 nM; potency at inhibiting HIV infection compared to cyclosporine A, 1 (in words) [4]: significantly more potent; IC50 [5]: 380 nM; EC50 [6]: 140 nM; IC50 [7]: 1060 nM; immunosuppressive activity (in words) [7]: very low levels of immunosuppressive activity; EC50 [8]: 210 nM; EC50 [9]: > 32000 nM; CC50 at 6 days [10]: > 32000 nM; disruption of the CypD-NS5A complex (in words) [11]: potent disruption; EC50 [12]: 110 nM
5 | CC(=O)CC[C@H]1C(=O)N[C@@H](C(C)C)C(=O)N[C@@H](Cc2cccc(O)c2)C(=O)N2CCCC(N2)C(=O)O[C@H](/C(C)=C/C=C/C(=O)N(C)C)C/C=C/C=C/[C@H](O)[C@H](C)[C@H]1O (some centres unmarked) [compound 22] | > 100000 | increased solubility | > 100 | >287 | very potent | 349 | 6200 | –
6 | CC(=O)CC[C@H]1C(=O)N[C@@H](C(C)C)C(=O)N[C@@H](Cc2cccc(O)c2)C(=O)N2CCCC(N2)C(=O)O[C@H](/C(C)=C/C=C/C(=O)N2CCCCO2)C/C=C/C=C/[C@H](O)[C@H](C)[C@H]1O (some centres unmarked) [compound 55] | > 100000 | – | – | >800 | very potent | 125 | 691 | EC50 [4]: 310 nM; potency at inhibiting HIV infection compared to cyclosporine A, 1 (in words) [4]: significantly more potent; IC50 [5]: 230 nM; EC50 [6]: 150 nM; IC50 [7]: 1450 nM; immunosuppressive activity (in words) [7]: very low levels of immunosuppressive activity; EC50 [8]: 230 nM; Solubility (physchem): > 100 µM; disruption of the CypD-NS5A complex (in words) [11]: potent disruption; EC50 [12]: 220 nM
7 | CON(C)C(=O)/C=C/C=C(\C)[C@@H]1C/C=C/C=C/[C@H](O)[C@H](C)[C@@H](O)[C@@H](CCC(C)=O)C(=O)N[C@@H](C(C)C)C(=O)N[C@@H](Cc2cccc(O)c2)C(=O)N2CCCC(N2)C(=O)O1 (some centres unmarked) [compound 10] | > 100000 | increased solubility | > 100 | >617 | very potent | 162 | 921 | –
8 | CC(=O)CC[C@H]1C(=O)N[C@@H](C(C)C)C(=O)N[C@@H](Cc2cccc(O)c2)C(=O)N2CCCC(N2)C(=O)O[C@H](/C(C)=C/C=C/C(=O)Nc2ccc(-c3ccccc3)cc2)C/C=C/C=C/[C@H](O)[C@H](C)[C@H]1O (some centres unmarked) [compound 41] | > 100000 | – | – | >481 | very potent | 208 | 1100 | –
9 | CC(=O)CC[C@H]1C(=O)N[C@@H](C(C)C)C(=O)N[C@@H](Cc2cccc(O)c2)C(=O)N2CCCC(N2)C(=O)O[C@H](/C(C)=C/C=C/C(=O)N(CC(C)C)CC(C)C)C/C=C/C=C/[C@H](O)[C@H](C)[C@H]1O (some centres unmarked) [compound 32] | 2100 | – | – | – | very potent | 309 | 1100 | Solubility [3]: 33 µM (≈ 29.4 µg/mL)
10 | CCN(CC)C(=O)/C=C/C=C(\C)[C@@H]1C/C=C/C=C/[C@H](O)[C@H](C)[C@@H](O)[C@@H](CCC(C)=O)C(=O)N[C@@H](C(C)C)C(=O)N[C@@H](Cc2cccc(O)c2)C(=O)N2CCCC(N2)C(=O)O1 (some centres unmarked) [compound 13] | > 100000 | increased solubility | > 100 | >490 | very potent | 204 | 1200 | –
11 | CNC(=O)/C=C/C=C(\C)[C@@H]1C/C=C/C=C/[C@H](O)[C@H](C)[C@@H](O)[C@@H](CCC(C)=O)C(=O)N[C@@H](C(C)C)C(=O)N[C@@H](Cc2cccc(O)c2)C(=O)N2CCCC(N2)C(=O)O1 (some centres unmarked) [compound 19] | > 100000 | increased solubility | > 100 | >80 | – | 8000 | 60200 | –
12 | CC(=O)CC[C@H]1C(=O)N[C@@H](C(C)C)C(=O)N[C@@H](Cc2cccc(O)c2)C(=O)N2CCC[C@H](N2)C(=O)O[C@H](/C(C)=C/CO)C/C=C/C=C/[C@H](O)[C@H](C)[C@H]1O [hydroxymacrocycle, 6, reference compound] | – | – | – | – | less potent | – | – | CC50 (Huh5.2 cells): 83600 nM; EC50 ([2]; read-out: EC50): 8400 nM; EC90 ([2]; read-out: EC90): 39700 nM
13 | CC(=O)CC[C@H]1C(=O)N[C@@H](C(C)C)C(=O)N[C@@H](Cc2cccc(O)c2)C(=O)N2CCCC(N2)C(=O)O[C@H](/C(C)=C/C=C/C(=O)N(C)C2CCCCC2)C/C=C/C=C/[C@H](O)[C@H](C)[C@H]1O (some centres unmarked) [compound 45] | 66400 | – | – | 449 | very potent | 148 | 1900 | –
14 | CC(=O)CC[C@H]1C(=O)N[C@@H](C(C)C)C(=O)N[C@@H](Cc2cccc(O)c2)C(=O)N2CCCC(N2)C(=O)O[C@H](/C(C)=C/C=C/C(=O)NC(C)C)C/C=C/C=C/[C@H](O)[C@H](C)[C@H]1O (some centres unmarked) [compound 16] | > 100000 | – | – | >179 | very potent | 560 | 4600 | –
